Each structure is given as a SMILES string.

Ki data for 8 compounds are collected here from ChEMBL document CHEMBL1135171, “Discovery of potent and selective small molecule NPY Y5 receptor antagonists” (Bioorg Med Chem Lett, 2002).

One experiment concerns the target T1, Alpha-2C adrenergic receptor (Homo sapiens, UniProt P18825).
T1 sequence (P18825 whole entry): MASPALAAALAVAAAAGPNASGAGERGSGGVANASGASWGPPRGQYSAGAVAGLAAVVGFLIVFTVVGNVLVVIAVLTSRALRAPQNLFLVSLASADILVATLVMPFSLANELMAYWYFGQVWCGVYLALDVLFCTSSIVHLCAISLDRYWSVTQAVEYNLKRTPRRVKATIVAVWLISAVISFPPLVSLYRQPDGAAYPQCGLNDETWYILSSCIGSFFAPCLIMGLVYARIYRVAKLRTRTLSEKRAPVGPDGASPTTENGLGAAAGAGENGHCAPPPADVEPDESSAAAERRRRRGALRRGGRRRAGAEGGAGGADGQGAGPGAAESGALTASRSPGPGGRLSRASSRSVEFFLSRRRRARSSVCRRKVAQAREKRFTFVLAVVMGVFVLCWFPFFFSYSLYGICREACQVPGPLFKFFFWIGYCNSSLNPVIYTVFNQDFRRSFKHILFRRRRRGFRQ
Put plainly: Bnding affinity against cloned human Alpha-2C adrenergic receptor was evaluated.
`O=[N+]([O-])c1ccccc1S(=O)(=O)NC[C@H]1CC[C@H](CNCC2CCc3ccccc3C2)CC1` (some centres undefined) registered an inhibition constant (Ki) of 100 nM.

The target in a further experiment is D(2) dopamine receptor (Homo sapiens, UniProt P14416). Put plainly: Binding affinity against cloned human Dopamine receptor D2 was evaluated.
Chain of D(2) dopamine receptor (P14416 whole entry): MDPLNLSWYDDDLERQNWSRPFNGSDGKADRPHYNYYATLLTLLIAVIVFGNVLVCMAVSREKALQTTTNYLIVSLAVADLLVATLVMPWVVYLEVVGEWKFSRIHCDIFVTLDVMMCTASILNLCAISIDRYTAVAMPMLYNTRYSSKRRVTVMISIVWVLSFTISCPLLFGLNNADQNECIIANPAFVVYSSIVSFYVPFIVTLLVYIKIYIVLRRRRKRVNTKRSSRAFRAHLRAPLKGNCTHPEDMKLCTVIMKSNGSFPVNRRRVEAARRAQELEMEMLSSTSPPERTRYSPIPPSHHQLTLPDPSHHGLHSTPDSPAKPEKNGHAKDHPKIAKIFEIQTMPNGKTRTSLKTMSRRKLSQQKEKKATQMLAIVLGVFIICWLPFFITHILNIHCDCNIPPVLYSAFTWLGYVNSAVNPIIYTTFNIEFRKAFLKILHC
In the case of `O=[N+]([O-])c1ccccc1S(=O)(=O)NC[C@H]1CC[C@H](CNCC2CCc3ccccc3C2)CC1` (some centres undefined), the inhibition constant (Ki) came out at 63 nM.

Another experiment has as its target T2, Neuropeptide Y receptor type 1 (Rattus norvegicus, UniProt P21555).
T2 sequence (P21555 whole entry): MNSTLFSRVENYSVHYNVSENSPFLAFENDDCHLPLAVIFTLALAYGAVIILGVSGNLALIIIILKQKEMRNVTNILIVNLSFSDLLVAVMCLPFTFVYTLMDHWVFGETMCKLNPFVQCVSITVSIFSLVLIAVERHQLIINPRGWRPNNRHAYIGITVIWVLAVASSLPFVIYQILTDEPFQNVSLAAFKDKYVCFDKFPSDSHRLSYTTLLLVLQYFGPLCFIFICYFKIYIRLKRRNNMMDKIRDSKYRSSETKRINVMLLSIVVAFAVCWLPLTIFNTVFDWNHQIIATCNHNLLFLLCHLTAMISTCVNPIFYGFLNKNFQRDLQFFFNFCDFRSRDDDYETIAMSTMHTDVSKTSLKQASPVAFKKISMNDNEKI
Put plainly: Functional response of NPY to inhibit forskolin-stimulated cAMP in cells stably transfected with Neuropeptide Y receptor type 1.
`O=[N+]([O-])c1ccccc1S(=O)(=O)NC[C@H]1CC[C@H](CNCC2CCc3ccccc3C2)CC1` (some centres undefined) gave a Ki of 22000 nM.

A further experiment deals with T3, Neuropeptide Y receptor type 1 (Homo sapiens, UniProt P25929).
T3 sequence (P25929 whole entry): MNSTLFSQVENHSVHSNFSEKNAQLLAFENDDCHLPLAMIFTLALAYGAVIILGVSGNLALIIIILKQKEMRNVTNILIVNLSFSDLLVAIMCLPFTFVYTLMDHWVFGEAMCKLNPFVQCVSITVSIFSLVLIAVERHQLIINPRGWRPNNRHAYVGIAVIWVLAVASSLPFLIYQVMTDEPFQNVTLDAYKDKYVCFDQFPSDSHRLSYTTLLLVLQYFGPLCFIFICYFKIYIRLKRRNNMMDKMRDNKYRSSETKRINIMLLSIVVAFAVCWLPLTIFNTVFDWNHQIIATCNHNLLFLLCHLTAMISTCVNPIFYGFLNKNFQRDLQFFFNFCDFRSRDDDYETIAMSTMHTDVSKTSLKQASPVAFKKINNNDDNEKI
The experiment in a line: Tested for radioligand binding affinity against membranes from COS-7 cells transiently transfected with Neuropeptide Y receptor type 1. Format: cell membranes.
As to `Nc1ccccc1S(=O)(=O)NC[C@H]1CC[C@H](CNCC2CCc3ccccc3C2)CC1` (some centres undefined), the affinity corresponds to a Ki of 17200 nM.
On the same count and under the same terms, as for `O=[N+]([O-])c1ccccc1S(=O)(=O)NC[C@H]1CC[C@H](CNCC2CCc3ccccc3C2)CC1` (some centres undefined), the figure is 16000 nM.
The same measure, in the same setting: in the case of `O=[N+]([O-])c1ccccc1S(=O)(=O)NC[C@H]1CC[C@H](CNCc2ccnc3ccccc23)CC1` it was 48700 nM.
`O=S(=O)(NCCCCCCNCc1ccc2ccccc2c1)c1ccc2ccccc2c1`: the inhibition constant (Ki) amounted to 7300 nM.
The same measure, in the same setting: in the case of `O=[N+]([O-])c1ccccc1S(=O)(=O)NC[C@H]1CC[C@H](CNCc2ccc3ccccc3n2)CC1` it was 23700 nM; in that of `O=S(=O)(NC[C@H]1CC[C@H](CNCc2ccc3ccccc3c2)CC1)c1ccccc1C(F)(F)F`, 13000 nM; in that of `O=S(=O)(NC[C@H]1CC[C@H](CNCc2cccc3ccccc23)CC1)c1ccccc1C(F)(F)F`, 14500 nM.
Still for that read-out and setting: as for `O=S(=O)(NC[C@H]1CC[C@H](CNCC2CCc3ccccc3C2)CC1)c1cccc2ccccc12` (some centres undefined), the figure is 3550 nM.

In a further experiment the target is T4, Neuropeptide Y receptor type 5 (Homo sapiens, UniProt Q15761).
T4 sequence (Q15761 whole entry): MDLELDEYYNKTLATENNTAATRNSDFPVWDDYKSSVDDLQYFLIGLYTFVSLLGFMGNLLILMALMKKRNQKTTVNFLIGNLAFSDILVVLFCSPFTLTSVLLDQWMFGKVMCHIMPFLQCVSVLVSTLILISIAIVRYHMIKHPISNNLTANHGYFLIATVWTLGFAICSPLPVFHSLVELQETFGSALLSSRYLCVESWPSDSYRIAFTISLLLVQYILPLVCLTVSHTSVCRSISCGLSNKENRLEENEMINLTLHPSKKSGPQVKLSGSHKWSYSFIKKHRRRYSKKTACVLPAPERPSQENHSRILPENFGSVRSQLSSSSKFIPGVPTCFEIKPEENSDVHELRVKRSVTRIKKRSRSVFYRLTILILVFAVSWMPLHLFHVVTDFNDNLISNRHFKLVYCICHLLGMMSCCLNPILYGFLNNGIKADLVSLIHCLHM
The experiment in a line: Tested for radioligand binding affinity against membranes from COS-7 cells transiently transfected with Neuropeptide Y receptor type 5. Format: cell membranes.
The compound `Nc1ccccc1S(=O)(=O)NC[C@H]1CC[C@H](CNCC2CCc3ccccc3C2)CC1` (some centres undefined) yielded a Ki of 10 nM.
`O=[N+]([O-])c1ccccc1S(=O)(=O)NC[C@H]1CC[C@H](CNCC2CCc3ccccc3C2)CC1` (some centres undefined) registered an inhibition constant Ki of 8 nM.
The same measure, in the same setting: in the case of `O=[N+]([O-])c1ccccc1S(=O)(=O)NC[C@H]1CC[C@H](CNCc2ccnc3ccccc23)CC1` it was 28 nM; in that of `O=S(=O)(NCCCCCCNCc1ccc2ccccc2c1)c1ccc2ccccc2c1`, 123 nM.
In turn, `O=S(=O)(NC[C@H]1CC[C@H](CNCc2ccc3ccccc3c2)CC1)c1ccccc1C(F)(F)F` registered a Ki of 10 nM.
Consider `O=S(=O)(NC[C@H]1CC[C@H](CNCc2cccc3ccccc23)CC1)c1ccccc1C(F)(F)F`, for which the Ki stood at 26 nM.
Consider `O=S(=O)(NC[C@H]1CC[C@H](CNCC2CCc3ccccc3C2)CC1)c1cccc2ccccc12` (some centres undefined), for which the Ki stood at 11 nM.

The next experiment concerns the target T5, Neuropeptide Y receptor type 5 (Rattus norvegicus, UniProt Q63634).
T5 sequence (Q63634 whole entry): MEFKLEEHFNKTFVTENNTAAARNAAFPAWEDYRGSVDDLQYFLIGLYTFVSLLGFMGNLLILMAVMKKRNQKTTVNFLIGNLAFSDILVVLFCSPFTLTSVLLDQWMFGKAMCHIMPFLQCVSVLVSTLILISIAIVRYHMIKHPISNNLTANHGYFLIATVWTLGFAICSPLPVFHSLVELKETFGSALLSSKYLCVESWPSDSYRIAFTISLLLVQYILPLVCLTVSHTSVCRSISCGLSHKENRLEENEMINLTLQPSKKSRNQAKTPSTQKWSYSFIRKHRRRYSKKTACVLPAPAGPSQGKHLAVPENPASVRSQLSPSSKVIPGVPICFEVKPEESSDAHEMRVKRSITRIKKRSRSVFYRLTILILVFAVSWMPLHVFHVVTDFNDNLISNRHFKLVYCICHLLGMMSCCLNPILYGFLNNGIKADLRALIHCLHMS
Put plainly: Functional response of NPY to inhibit forskolin-stimulated cAMP in cells stably transfected with rat Neuropeptide Y receptor type 5.
Compound `O=[N+]([O-])c1ccccc1S(=O)(=O)NC[C@H]1CC[C@H](CNCC2CCc3ccccc3C2)CC1` (some centres undefined) returned a Ki of 18 nM.
